These results are taken from ChEMBL document CHEMBL4602732, “Optimizing Pyrazolopyrimidine Inhibitors of Calcium Dependent Protein Kinase 1 for Treatment of Acute and Chronic Toxoplasmosis” (J Med Chem, 2020).

A short description of series [1]: Protein binding in mouse plasma assessed as unbound fraction at 2 uM measured after 4 hrs by LC-MS/MS analysis. It is filed as ADME, cell-free.
Series [2] is described as follows: Half life in human liver microsomes at 10 uM preincubated for 10 mins followed by NADPH addition by LC-MS/MS analysis. Type of series: ADME, Microsome. To be noted: liver microsomes. (Liver microsomes are a subcellular fraction often used to study metabolism.)
Series [3] deals with T1, Aldehyde oxidase (Homo sapiens, UniProt Q06278).
T1 sequence (Q06278 whole entry): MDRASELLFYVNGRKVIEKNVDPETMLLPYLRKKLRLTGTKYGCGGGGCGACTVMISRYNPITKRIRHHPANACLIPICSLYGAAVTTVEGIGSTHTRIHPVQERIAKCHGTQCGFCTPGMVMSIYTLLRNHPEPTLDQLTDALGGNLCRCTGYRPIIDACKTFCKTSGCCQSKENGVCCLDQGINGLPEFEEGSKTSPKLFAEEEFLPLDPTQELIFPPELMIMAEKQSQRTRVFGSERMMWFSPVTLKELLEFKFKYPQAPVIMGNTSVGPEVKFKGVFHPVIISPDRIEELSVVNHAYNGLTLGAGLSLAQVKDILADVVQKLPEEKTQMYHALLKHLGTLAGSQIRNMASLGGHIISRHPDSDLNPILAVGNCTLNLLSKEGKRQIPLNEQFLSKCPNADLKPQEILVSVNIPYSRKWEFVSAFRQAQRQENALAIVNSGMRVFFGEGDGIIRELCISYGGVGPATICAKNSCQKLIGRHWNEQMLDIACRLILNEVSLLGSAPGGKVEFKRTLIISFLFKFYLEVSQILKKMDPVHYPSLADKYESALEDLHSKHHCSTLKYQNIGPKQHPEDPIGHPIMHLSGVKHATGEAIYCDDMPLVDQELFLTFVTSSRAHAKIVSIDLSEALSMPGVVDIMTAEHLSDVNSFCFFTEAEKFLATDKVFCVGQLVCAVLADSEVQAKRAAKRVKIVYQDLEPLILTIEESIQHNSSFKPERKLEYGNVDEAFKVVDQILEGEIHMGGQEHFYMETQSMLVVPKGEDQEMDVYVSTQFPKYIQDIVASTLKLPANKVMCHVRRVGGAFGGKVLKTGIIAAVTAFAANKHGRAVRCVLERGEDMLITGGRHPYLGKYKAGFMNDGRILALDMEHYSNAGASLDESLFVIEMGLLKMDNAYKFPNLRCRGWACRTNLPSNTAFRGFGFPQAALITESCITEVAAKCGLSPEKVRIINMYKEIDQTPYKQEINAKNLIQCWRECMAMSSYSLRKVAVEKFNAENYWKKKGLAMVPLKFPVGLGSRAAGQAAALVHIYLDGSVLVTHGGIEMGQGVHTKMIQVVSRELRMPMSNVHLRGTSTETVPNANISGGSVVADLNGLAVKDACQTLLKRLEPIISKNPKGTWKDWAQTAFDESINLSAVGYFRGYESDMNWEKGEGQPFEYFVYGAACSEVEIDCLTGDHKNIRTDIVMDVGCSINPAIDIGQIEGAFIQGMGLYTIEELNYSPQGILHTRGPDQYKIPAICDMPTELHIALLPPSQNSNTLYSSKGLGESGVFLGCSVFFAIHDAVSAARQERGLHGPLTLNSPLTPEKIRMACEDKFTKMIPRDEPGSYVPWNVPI
The series can be described thus: Drug metabolism in human liver S9 fraction assessed as aldehyde oxidase-mediated drug metabolism by measuring rate of parent compound decay at 1 uM measured after 90 mins by LC-MS/MS analysis. It is filed as ADME, subcellular.

Series [4] addresses Voltage-gated inwardly rectifying potassium channel KCNH2 (Homo sapiens, UniProt Q12809). As to the kind of experiment: Inhibition of human ERG expressed in CHOK1 cells by patch-clamp electrophysiology assay. Type of series: cell-based, CHO-K1. On the technique in general: Patch clamp records ionic current or voltage across a cell membrane.
Series [5] is described as follows: Inhibition of Toxoplasma gondii full-length wild-type C-terminal His-tagged CDPK1 expressed in Escherichia coli BL21(DE3)V2RpAcYc-LIC+LamP using syntide-2 peptide as substrate incubated for 20 to 40 mins by ELISA. For orientation: In an ELISA, binding on a coated surface is turned into a signal by an enzyme label.
For series [6], the target named is Proto-oncogene tyrosine-protein kinase Src (Homo sapiens, UniProt P12931). The series can be described thus: Inhibition of human Src expressed in Escherichia coli BL21 using Abltide peptide as substrate incubated for 20 to 40 mins by ELISA.
Series [7] can be described thus: Genotoxicity in Salmonella typhimurium TA98 at 0.004 to 5 mg/ml measured after 90 mins in absence of rat S9 fraction by mini-Ames test. Type of series: toxicity. To be noted: salmonella enterica subsp. enterica serovar typhimurium.
A short description of series [8]: Cytotoxicity against MDCK cells assessed as cell growth at 20 uM measured after 72 hrs by cellTiter 96 AQueous non-radioactive cell proliferation assay relative to control. It is filed as cell-based, Canis lupus familiaris. To be noted: dog, read-out: Activity.
In series [9] the test system is Toxoplasma gondii. As to the kind of experiment: Antiparasitic activity against 2F clone of type 1 Toxoplasma gondii RH tachyzoites expressing beta-galactosidase infected in HFF assessed as reduction in parasite growth measured after 72 hrs by chlorophenol Red-beta-D-galactopyranoside substrate based assay. Type of series: functional, organism-based.
A short description of series [10]: Clearance in human hepatocytes assessed per million cells at 1 uM by LC-MS/MS analysis. It is filed as ADME, cell-based, Hepatocyte.
Series [11] in a line: Apparent permeability across apical to basolateral side in MDCK2-MDR1 cells at 2 uM measured after 150 mins by LC-MS/MS analysis. Type of series: ADME, cell-based, Canis lupus familiaris. To be noted: dog, mdck-mdr1, […].
A short description of series [12]: Half life in CD1 mouse at 3 mg/kg, iv or 10 mg/kg, po administered via gavage by LC-MS/MS analysis. It is filed as ADME, organism-based. The following applies: in vivo.
The nature of series [13]: Cytotoxicity against human CMEC/D3 cells assessed as cell growth at 20 uM measured after 72 hrs by cellTiter 96 AQueous non-radioactive cell proliferation assay relative to control. It is filed as cell-based, hCMEC/D3. The following applies: read-out: Activity.
Series [14] in a line: Toxicity in CD1 mouse assessed as adverse effect at 600 mg/kg measured for 7 days. It is filed as organism-based. To be noted: in vivo, 168 h.
The nature of series [15]: Intrinsic clearance in human liver microsomes at 10 uM preincubated for 10 mins followed by NADPH addition by LC-MS/MS analysis. Type of series: ADME, Microsome. To be noted: read-out: CLH.
Series [16] can be described thus: Cmax in CD1 mouse at 3 mg/kg, iv or 10 mg/kg, po administered via gavage by LC-MS/MS analysis. Type of series: ADME, organism-based. The following applies: in vivo.
The test system of series [17] is CHO-K1. As to the kind of experiment: Genotoxicity in CHOK1 cells measured after 24 hrs in absence of Sprague-Dawley rat liver S9 fraction by Hoechst/calcein-AM staining based micronucleus test. It is filed as toxicity, cell-based, Cricetulus griseus. The following applies: chinese hamster, cho-k1, 24 h.
The nature of series [18]: Cytotoxicity against HFF monolayers assessed as cell growth measured after 72 hrs by luciferase reporter gene assay relative to control. The following applies: human, read-out: Activity. It is filed as cell-based.
Series [19] addresses PTK6 (Homo sapiens, UniProt Q13882). As to the kind of experiment: Inhibition of recombinant human full-length His-tagged PTK6 cytoplasmic domain expressed in baculovirus expression system at 1 uM using Fluorescein-Poly GT as substrate by Lanthascreen assay relative to control. The following applies: probe Fluorescein-Poly GT.
In series [20] the target is LCK (Homo sapiens, UniProt P06239). As to the kind of experiment: Inhibition of wild-type human partial length LCK (R207 to P509 residues) expressed in bacterial expression system at 10 uM by Kinomescan method relative to control.
Series [21] is described as follows: Cytotoxicity against human Caco2 cells assessed as cell growth at 20 uM measured after 72 hrs by cellTiter 96 AQueous non-radioactive cell proliferation assay relative to control. Type of series: cell-based, Caco-2. The following applies: read-out: Activity.

Each structure is given as a SMILES string.

LCK, sequence (P06239 whole entry, the tested form may be a part): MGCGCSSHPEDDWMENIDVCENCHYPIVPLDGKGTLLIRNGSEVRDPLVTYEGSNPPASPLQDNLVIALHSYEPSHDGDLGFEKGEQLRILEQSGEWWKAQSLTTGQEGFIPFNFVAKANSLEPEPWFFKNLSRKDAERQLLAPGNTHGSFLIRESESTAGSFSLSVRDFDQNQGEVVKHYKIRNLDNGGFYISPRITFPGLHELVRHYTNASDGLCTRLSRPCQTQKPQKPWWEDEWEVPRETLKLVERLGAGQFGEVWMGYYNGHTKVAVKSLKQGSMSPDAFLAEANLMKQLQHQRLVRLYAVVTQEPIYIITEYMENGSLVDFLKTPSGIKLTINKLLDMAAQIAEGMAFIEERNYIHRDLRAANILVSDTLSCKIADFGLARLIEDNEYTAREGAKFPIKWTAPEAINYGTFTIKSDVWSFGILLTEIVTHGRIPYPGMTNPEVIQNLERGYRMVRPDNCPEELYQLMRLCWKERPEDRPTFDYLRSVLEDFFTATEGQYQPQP
PTK6, sequence (Q13882 whole entry, the tested form may be a part): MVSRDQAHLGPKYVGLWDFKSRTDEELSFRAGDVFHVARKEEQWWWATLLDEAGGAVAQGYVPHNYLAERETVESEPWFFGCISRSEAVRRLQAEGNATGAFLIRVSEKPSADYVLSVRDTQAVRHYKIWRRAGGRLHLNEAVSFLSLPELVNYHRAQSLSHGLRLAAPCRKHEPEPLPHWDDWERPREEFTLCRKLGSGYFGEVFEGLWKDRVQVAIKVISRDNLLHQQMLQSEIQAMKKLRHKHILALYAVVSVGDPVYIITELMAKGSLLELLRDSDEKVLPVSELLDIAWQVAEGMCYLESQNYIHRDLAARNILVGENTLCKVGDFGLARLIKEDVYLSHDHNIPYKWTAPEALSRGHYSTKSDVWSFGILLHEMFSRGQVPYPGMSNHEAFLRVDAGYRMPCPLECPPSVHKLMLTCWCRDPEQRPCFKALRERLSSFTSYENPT
Voltage-gated inwardly rectifying potassium channel KCNH2, sequence (Q12809 whole entry): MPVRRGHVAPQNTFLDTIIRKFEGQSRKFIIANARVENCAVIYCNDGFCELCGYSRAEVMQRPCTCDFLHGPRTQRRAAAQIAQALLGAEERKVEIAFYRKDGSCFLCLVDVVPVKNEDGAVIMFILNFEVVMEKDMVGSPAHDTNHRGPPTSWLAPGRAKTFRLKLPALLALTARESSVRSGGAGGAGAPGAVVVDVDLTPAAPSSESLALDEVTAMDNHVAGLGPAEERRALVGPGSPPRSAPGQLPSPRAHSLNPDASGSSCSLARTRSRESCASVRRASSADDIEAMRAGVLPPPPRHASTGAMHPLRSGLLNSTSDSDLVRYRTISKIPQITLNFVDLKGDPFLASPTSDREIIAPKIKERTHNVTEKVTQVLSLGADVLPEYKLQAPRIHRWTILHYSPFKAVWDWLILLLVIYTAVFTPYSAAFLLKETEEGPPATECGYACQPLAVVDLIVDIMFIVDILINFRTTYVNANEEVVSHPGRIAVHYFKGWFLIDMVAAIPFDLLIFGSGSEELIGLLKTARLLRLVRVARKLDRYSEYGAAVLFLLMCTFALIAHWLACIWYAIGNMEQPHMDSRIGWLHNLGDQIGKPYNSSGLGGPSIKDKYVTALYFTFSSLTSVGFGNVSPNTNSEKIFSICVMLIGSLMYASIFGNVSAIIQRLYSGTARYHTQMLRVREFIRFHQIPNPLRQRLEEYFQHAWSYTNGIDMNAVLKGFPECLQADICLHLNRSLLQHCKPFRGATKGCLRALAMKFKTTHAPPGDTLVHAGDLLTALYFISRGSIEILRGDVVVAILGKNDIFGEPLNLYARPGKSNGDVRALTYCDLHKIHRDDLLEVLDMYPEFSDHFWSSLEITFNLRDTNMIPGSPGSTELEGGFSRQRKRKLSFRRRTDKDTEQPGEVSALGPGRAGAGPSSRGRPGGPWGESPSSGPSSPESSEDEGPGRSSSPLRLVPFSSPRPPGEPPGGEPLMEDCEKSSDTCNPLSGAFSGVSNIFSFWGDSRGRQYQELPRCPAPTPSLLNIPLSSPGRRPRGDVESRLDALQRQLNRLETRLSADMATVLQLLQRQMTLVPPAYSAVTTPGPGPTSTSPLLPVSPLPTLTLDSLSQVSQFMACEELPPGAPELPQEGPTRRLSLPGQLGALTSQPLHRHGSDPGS
Proto-oncogene tyrosine-protein kinase Src, sequence (P12931 2-536 limits assumed): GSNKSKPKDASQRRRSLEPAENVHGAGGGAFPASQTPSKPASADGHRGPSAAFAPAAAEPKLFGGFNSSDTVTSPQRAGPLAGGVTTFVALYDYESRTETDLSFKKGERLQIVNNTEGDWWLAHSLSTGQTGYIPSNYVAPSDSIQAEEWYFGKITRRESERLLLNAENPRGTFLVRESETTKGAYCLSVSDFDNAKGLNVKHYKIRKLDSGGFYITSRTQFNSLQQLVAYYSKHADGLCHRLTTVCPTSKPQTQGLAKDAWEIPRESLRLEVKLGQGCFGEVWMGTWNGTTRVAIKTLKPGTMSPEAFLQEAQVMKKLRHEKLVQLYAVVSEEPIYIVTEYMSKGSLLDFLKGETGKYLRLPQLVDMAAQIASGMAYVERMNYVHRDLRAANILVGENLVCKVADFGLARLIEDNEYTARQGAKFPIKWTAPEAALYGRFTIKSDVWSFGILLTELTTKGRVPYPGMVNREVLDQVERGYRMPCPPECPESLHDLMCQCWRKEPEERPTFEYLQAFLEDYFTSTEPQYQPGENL

Broadly, the half-life is the time in which the quantity being followed falls by half. A higher half-life goes with slow loss. As a reminder, the IC50 is the concentration that gives 50% inhibition. Higher therefore signals weaker potency. The term EC50 denotes the midpoint of the concentration-response curve. For orientation: Papp means a coefficient for how fast a substance crosses the barrier. By Cmax is commonly meant the maximum level reached in the sampled fluid or tissue. As usually defined, the inhibition is the percentage by which the read-out fell short of the control. Take `Nc1ncnc2c1c(Oc1cc(C(F)(F)F)ccn1)nn2C1CC1`: in series [1], the Fu is 15.6%. This molecule also showed a half-life at 10 µM in series [2] greater than 2.42 h. The Drug metabolism in series [3] was less than 3.2 µL/min/mg. In addition, the figures for the IC50 in series [4], in series [5] and in series [6] were greater than 30000 nM, 16 to 16.5 nM and greater than 20000 nM, respectively. For the same molecule, the Activity entry in [7] was “Non-Toxic”; in series [14], “Non-Toxic”; in series [17], greater than 1000 µM. Moreover, the viability at 72 h, 20 µM amounted to 97.8% in series [8], 132% in series [13] and 93.3% in series [21]. The EC50 in [9] stood at 172 nM. The molecule further showed a CLH in series [10] of less than 6.4 µL/min/1e6 cells. Besides, the Papp in series [11] is 33 ×10⁻⁶ cm/s. In [12], the t1/2 is 4.2 h. In addition, the CLint scaled at 10 µM in [15] is less than 8.6 mL/min/kg. In [16], the Cmax is 2067 ng/mL. In series [18], the viability at 72 h was determined as 106%. The inhibition at 1 µM in [19] is greater than 50%. In series [20], this molecule displayed an inhibition at 10 µM of 55%.
As to `N#Cc1ccnc(Oc2nn([C@H]3C[C@H](F)C3)c3ncnc(N)c23)c1`, in series [1], the Fu turned out to be 29.3%. For the same molecule, in series [2], the half-life at 10 µM is greater than 2.42 h. In addition, in series [3], the Drug metabolism was less than 3.2 µL/min/mg. Also, the figures for the IC50 in [4], in [5] and in series [6] were greater than 30000 nM, 14.9 to 15 nM and greater than 20000 nM, respectively. Also, the Activity result is “Non-Toxic” in series [7], “Non-Toxic” in [14] and greater than 100 µM in [17]. For the same molecule, the viability at 72 h, 20 µM in [8] amounted to 79.4%; in [13] it was 135%; in series [21], 95.5%. Also, in series [9], the EC50 was found to be 201 nM. In addition, in series [10], the CLH amounted to 10 µL/min/1e6 cells. The Papp in series [11] is reported as 26.87 ×10⁻⁶ cm/s. In series [12], this molecule displayed a t1/2 of 1.43 h. For the same molecule, the CLint scaled at 10 µM in [15] was less than 8.6 mL/min/kg. Also, in series [16], the Cmax worked out at 1503 ng/mL. The viability at 72 h in [18] was 112%. Moreover, the inhibition at 1 µM in [19] was greater than 50%. This molecule displayed an inhibition at 10 µM in [20] of 74%.
